10 compounds from BindingDB's records for doi:10.1021/jm025595i (Enanta Pharmaceuticals, 2003) can be followed below.

The first assay can be described thus: Compound was evaluated for its inhibitory activity in a calcineurin inhibition assay.
In general, IC50 refers to the midpoint of a concentration-inhibition curve. With `CC[C@@H]1NC(=O)[C@H]([C@H](O)[C@H](C)C/C=C/C(=O)OCCF)N(C)C(=O)[C@H](C(C)C)N(C)C(=O)[C@H](CC(C)C)N(C)C(=O)[C@H](CC(C)C)N(C)C(=O)[C@@H](C)NC(=O)[C@H](C)NC(=O)[C@H](CC(C)C)N(C)C(=O)[C@H](C(C)C)NC(=O)[C@H](CC(C)C)N(C)C(=O)CN(C)C1=O` [6-(5-Ethyl-11,17,26,29-tetraisobutyl-14,32-diisopropyl-1,7,10,16,20,23,25,28,31-nonamethyl-3,6,9,12,15,18,21,24,27,30,33-undecaoxo-1,4,7,10,13,16,19,22,25,28,31undecaaza-cyclotritriacont-2-yl)-6-hydroxy-5-methyl-hex-2-enoic acid 2-fluoro-ethyl ester], the half-maximal inhibitory concentration (IC50) was found to be 636 nM. `CCOC(=O)/C=C/C[C@@H](C)[C@@H](O)[C@H]1C(=O)N[C@@H](CC)C(=O)N(C)CC(=O)N(C)[C@@H](CC(C)C)C(=O)N[C@@H](C(C)C)C(=O)N(C)[C@@H](CC(C)C)C(=O)N[C@@H](C)C(=O)N[C@H](C)C(=O)N(C)[C@@H](CC(C)C)C(=O)N(C)[C@@H](CC(C)C)C(=O)N(C)[C@@H](C(C)C)C(=O)N1C` [6-(5-Ethyl-11,17,26,29-tetraisobutyl-14,32-diisopropyl-1,7,10,16,20,23,25,28,31-nonamethyl-3,6,9,12,15,18,21,24,27,30,33-undecaoxo-1,4,7,10,13,16,19,22,25,28,31undecaaza-cyclotritriacont-2-yl)-6-hydroxy-5-methyl-hex-2-enoic acid ethyl ester]: the IC50 amounted to 363 nM. For the compound `CC[C@@H]1NC(=O)[C@H]([C@H](O)[C@H](C)C/C=C/C(=O)OC)N(C)C(=O)[C@H](C(C)C)N(C)C(=O)[C@H](CC(C)C)N(C)C(=O)[C@H](CC(C)C)N(C)C(=O)[C@@H](C)NC(=O)[C@H](C)NC(=O)[C@H](CC(C)C)N(C)C(=O)[C@H](C(C)C)NC(=O)[C@H](CC(C)C)N(C)C(=O)CN(C)C1=O` [6-(5-Ethyl-11,17,26,29-tetraisobutyl-14,32-diisopropyl-1,7,10,16,20,23,25,28,31-nonamethyl-3,6,9,12,15,18,21,24,27,30,33-undecaoxo-1,4,7,10,13,16,19,22,25,28,31undecaaza-cyclotritriacont-2-yl)-6-hydroxy-5-methyl-hex-2-enoic acid methyl ester], the half-maximal inhibitory concentration (IC50) was 581 nM.

Consider `CC[C@@H]1NC(=O)[C@H]([C@H](O)[C@H](C)C/C=C/C(=O)O)N(C)C(=O)[C@H](C(C)C)N(C)C(=O)[C@H](CC(C)C)N(C)C(=O)[C@H](CC(C)C)N(C)C(=O)[C@@H](C)NC(=O)[C@H](C)NC(=O)[C@H](CC(C)C)N(C)C(=O)[C@H](C(C)C)NC(=O)[C@H](CC(C)C)N(C)C(=O)CN(C)C1=O` [6-(5-Ethyl-11,17,26,29-tetraisobutyl-14,32-diisopropyl-1,7,10,16,20,23,25,28,31-nonamethyl-3,6,9,12,15,18,21,24,27,30,33-undecaoxo-1,4,7,10,13,16,19,22,25,28,31undecaaza-cyclotritriacont-2-yl)-6-hydroxy-5-methyl-hex-2-enoic acid], for which the IC50 was > 5000 nM.

Turning to `CC[C@@H]1NC(=O)[C@H]([C@H](O)[C@H](C)CCCC(=O)OCCF)N(C)C(=O)[C@H](C(C)C)N(C)C(=O)[C@H](CC(C)C)N(C)C(=O)[C@H](CC(C)C)N(C)C(=O)[C@@H](C)NC(=O)[C@H](C)NC(=O)[C@H](CC(C)C)N(C)C(=O)[C@H](C(C)C)NC(=O)[C@H](CC(C)C)N(C)C(=O)CN(C)C1=O` [6-(5-Ethyl-11,17,26,29-tetraisobutyl-14,32-diisopropyl-1,7,10,16,20,23,25,28,31-nonamethyl-3,6,9,12,15,18,21,24,27,30,33-undecaoxo-1,4,7,10,13,16,19,22,25,28,31undecaaza-cyclotritriacont-2-yl)-6-hydroxy-5-methyl-hexanoic acid 2-fluoro-ethyl ester], the IC50 was determined as 1540 nM. As for `CCOC(=O)CCC[C@@H](C)[C@@H](O)[C@H]1C(=O)N[C@@H](CC)C(=O)N(C)CC(=O)N(C)[C@@H](CC(C)C)C(=O)N[C@@H](C(C)C)C(=O)N(C)[C@@H](CC(C)C)C(=O)N[C@@H](C)C(=O)N[C@H](C)C(=O)N(C)[C@@H](CC(C)C)C(=O)N(C)[C@@H](CC(C)C)C(=O)N(C)[C@@H](C(C)C)C(=O)N1C` [6-(5-Ethyl-11,17,26,29-tetraisobutyl-14,32-diisopropyl-1,7,10,16,20,23,25,28,31-nonamethyl-3,6,9,12,15,18,21,24,27,30,33-undecaoxo-1,4,7,10,13,16,19,22,25,28,31undecaaza-cyclotritriacont-2-yl)-6-hydroxy-5-methyl-hexanoic acid ethyl ester], the concentration for half-maximal inhibition (IC50) was determined as 840 nM.

For the compound `CC[C@@H]1NC(=O)[C@H]([C@H](O)[C@H](C)CCCC(=O)OC)N(C)C(=O)[C@H](C(C)C)N(C)C(=O)[C@H](CC(C)C)N(C)C(=O)[C@H](CC(C)C)N(C)C(=O)[C@@H](C)NC(=O)[C@H](C)NC(=O)[C@H](CC(C)C)N(C)C(=O)[C@H](C(C)C)NC(=O)[C@H](CC(C)C)N(C)C(=O)CN(C)C1=O` [6-(5-Ethyl-11,17,26,29-tetraisobutyl-14,32-diisopropyl-1,7,10,16,20,23,25,28,31-nonamethyl-3,6,9,12,15,18,21,24,27,30,33-undecaoxo-1,4,7,10,13,16,19,22,25,28,31undecaaza-cyclotritriacont-2-yl)-6-hydroxy-5-methyl-hexanoic acid methyl ester], the IC50 was found to be 890 nM. For the compound `CC[C@@H]1NC(=O)[C@H]([C@H](O)[C@H](C)CCCC(=O)OCSC)N(C)C(=O)[C@H](C(C)C)N(C)C(=O)[C@H](CC(C)C)N(C)C(=O)[C@H](CC(C)C)N(C)C(=O)[C@@H](C)NC(=O)[C@H](C)NC(=O)[C@H](CC(C)C)N(C)C(=O)[C@H](C(C)C)NC(=O)[C@H](CC(C)C)N(C)C(=O)CN(C)C1=O` [6-(5-Ethyl-11,17,26,29-tetraisobutyl-14,32-diisopropyl-1,7,10,16,20,23,25,28,31-nonamethyl-3,6,9,12,15,18,21,24,27,30,33-undecaoxo-1,4,7,10,13,16,19,22,25,28,31undecaaza-cyclotritriacont-2-yl)-6-hydroxy-5-methyl-hexanoic acid methylsulfanylmethylester], the IC50 was > 5000 nM.

The nature of a further assay: Compound was evaluated for its inhibitory activity in a calcineurin inhibition assay (MTM).
On to `CC[C@@H]1NC(=O)[C@H]([C@H](O)[C@H](C)C/C=C/C(=O)OCSC)N(C)C(=O)[C@H](C(C)C)N(C)C(=O)[C@H](CC(C)C)N(C)C(=O)[C@H](CC(C)C)N(C)C(=O)[C@@H](C)NC(=O)[C@H](C)NC(=O)[C@H](CC(C)C)N(C)C(=O)[C@H](C(C)C)NC(=O)[C@H](CC(C)C)N(C)C(=O)CN(C)C1=O` [Cyclosporin A analogue], for which the IC50 was determined as 2150 nM.

The nature of a further assay: Compound was evaluated for its inhibitory activity in a calcineurin inhibition assay (MOM).
Consider `CC[C@@H]1NC(=O)[C@H]([C@H](O)[C@H](C)C/C=C/C(=O)OCOC)N(C)C(=O)[C@H](C(C)C)N(C)C(=O)[C@H](CC(C)C)N(C)C(=O)[C@H](CC(C)C)N(C)C(=O)[C@@H](C)NC(=O)[C@H](C)NC(=O)[C@H](CC(C)C)N(C)C(=O)[C@H](C(C)C)NC(=O)[C@H](CC(C)C)N(C)C(=O)CN(C)C1=O` [6-(5-Ethyl-11,17,26,29-tetraisobutyl-14,32-diisopropyl-1,7,10,16,20,23,25,28,31-nonamethyl-3,6,9,12,15,18,21,24,27,30,33-undecaoxo-1,4,7,10,13,16,19,22,25,28,31undecaaza-cyclotritriacont-2-yl)-6-hydroxy-5-methyl-hex-2-enoic acid methoxymethyl ester], for which the IC50 was found to be 1920 nM.

The nature of the next assay: Compound was evaluated for its inhibitory activity in a calcineurin inhibition assay (morn).
As for `CC[C@@H]1NC(=O)[C@H]([C@H](O)[C@H](C)C/C=C/C(=O)OCOC)N(C)C(=O)[C@H](C(C)C)N(C)C(=O)[C@H](CC(C)C)N(C)C(=O)[C@H](CC(C)C)N(C)C(=O)[C@@H](C)NC(=O)[C@H](C)NC(=O)[C@H](CC(C)C)N(C)C(=O)[C@H](C(C)C)NC(=O)[C@H](CC(C)C)N(C)C(=O)CN(C)C1=O` [6-(5-Ethyl-11,17,26,29-tetraisobutyl-14,32-diisopropyl-1,7,10,16,20,23,25,28,31-nonamethyl-3,6,9,12,15,18,21,24,27,30,33-undecaoxo-1,4,7,10,13,16,19,22,25,28,31undecaaza-cyclotritriacont-2-yl)-6-hydroxy-5-methyl-hex-2-enoic acid methoxymethyl ester], the IC50 was 742 nM. As to `CC[C@@H]1NC(=O)[C@H]([C@H](O)[C@H](C)C/C=C/C(=O)OCSC)N(C)C(=O)[C@H](C(C)C)N(C)C(=O)[C@H](CC(C)C)N(C)C(=O)[C@H](CC(C)C)N(C)C(=O)[C@@H](C)NC(=O)[C@H](C)NC(=O)[C@H](CC(C)C)N(C)C(=O)[C@H](C(C)C)NC(=O)[C@H](CC(C)C)N(C)C(=O)CN(C)C1=O` [Cyclosporin A analogue], the IC50 came out at 348 nM.
